Assay results taken from patent US10730877B2, “4-Azaindole compounds” (BRISTOL-MYERS SQUIBB COMPANY, priority 2017, dated 2020).
Where two headings read alike, the source gives them in different places.

What was measured:
human TLR9 = human TLR9 (Homo sapiens (Human), UniProt Q9NR96); assay: TLR9 inhibition reporter assay (HEK-Blue cells, SEAP reporter, ODN2006 stimulation);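 further: SEAP driven by IFN-β minimal promoter with five NF-κB and AP-1 sites, compounds 0.05 nM–50 µM in DMSO, 22 h, inhibition scaled between agonist plus DMSO and reference inhibitor wells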
Chain of human TLR9 (Q9NR96 26-1032): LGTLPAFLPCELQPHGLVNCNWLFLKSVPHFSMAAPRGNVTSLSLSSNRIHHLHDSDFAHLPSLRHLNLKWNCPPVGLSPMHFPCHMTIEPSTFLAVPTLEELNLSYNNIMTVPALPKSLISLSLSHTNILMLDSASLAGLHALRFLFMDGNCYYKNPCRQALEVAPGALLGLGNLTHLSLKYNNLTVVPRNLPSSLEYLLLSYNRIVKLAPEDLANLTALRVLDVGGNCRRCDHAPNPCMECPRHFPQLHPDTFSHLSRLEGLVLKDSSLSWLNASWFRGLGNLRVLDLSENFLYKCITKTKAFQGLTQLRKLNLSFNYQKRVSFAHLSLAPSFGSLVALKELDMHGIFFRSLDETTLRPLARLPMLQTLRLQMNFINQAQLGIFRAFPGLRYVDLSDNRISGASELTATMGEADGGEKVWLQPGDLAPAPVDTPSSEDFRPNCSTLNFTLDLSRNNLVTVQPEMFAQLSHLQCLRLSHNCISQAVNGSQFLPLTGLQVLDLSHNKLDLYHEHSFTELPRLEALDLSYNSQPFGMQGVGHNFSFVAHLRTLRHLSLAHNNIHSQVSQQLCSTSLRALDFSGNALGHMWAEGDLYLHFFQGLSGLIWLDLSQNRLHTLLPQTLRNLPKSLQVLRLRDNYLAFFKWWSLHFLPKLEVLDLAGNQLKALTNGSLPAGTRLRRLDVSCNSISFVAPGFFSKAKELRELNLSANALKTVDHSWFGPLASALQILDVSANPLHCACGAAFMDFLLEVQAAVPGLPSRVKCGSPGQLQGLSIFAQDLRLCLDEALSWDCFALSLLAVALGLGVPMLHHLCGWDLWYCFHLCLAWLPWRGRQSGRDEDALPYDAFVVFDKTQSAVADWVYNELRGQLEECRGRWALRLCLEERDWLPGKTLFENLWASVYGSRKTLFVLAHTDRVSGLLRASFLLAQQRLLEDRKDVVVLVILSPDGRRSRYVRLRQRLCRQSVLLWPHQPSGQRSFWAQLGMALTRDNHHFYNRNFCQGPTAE

human TLR7 = human TLR7 (Homo sapiens (Human), UniProt Q9NYK1); assay: TLR7 inhibition reporter assay (HEK-Blue cells, SEAP reporter, gardiquimod stimulation); format: cell-based; conditions: gardiquimod 7.5 μM
Chain of human TLR7 (Q9NYK1 27-1049): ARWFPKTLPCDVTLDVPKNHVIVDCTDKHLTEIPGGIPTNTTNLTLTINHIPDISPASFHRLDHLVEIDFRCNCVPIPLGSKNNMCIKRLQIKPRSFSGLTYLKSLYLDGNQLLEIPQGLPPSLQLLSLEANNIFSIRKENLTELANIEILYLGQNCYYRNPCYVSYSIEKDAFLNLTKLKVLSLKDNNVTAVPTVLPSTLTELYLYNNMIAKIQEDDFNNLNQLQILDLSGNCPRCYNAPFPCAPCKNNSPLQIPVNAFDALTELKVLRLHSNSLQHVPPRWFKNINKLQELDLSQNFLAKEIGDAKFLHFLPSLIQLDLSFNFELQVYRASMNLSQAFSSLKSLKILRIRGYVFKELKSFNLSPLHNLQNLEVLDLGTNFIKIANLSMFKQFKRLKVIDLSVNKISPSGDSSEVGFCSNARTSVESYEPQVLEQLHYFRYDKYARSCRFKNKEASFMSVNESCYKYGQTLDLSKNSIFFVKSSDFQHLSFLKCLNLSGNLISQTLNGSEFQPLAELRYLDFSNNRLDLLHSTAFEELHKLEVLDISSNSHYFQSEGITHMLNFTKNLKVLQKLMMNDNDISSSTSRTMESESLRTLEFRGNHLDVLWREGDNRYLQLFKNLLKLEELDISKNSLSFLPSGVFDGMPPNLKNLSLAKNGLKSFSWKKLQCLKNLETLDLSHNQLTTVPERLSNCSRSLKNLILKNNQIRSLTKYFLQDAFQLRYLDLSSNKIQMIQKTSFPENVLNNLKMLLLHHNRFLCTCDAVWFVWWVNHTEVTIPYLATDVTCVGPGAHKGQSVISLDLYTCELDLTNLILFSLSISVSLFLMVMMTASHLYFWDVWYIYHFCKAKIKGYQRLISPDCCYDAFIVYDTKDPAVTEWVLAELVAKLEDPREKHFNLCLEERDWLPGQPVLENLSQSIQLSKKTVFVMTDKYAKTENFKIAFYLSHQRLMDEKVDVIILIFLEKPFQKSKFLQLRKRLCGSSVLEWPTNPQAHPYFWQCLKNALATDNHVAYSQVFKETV

human TLR8 = human TLR8 (Homo sapiens (Human), UniProt Q9NR97); assay: TLR8 inhibition reporter assay (HEK-Blue cells, SEAP reporter, R848 stimulation); conditions: read-out: TLR8 IC50, R848 15.9 μM;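 further: SEAP under an IFN-β minimal promoter carrying five NF-κB and AP-1 sites, 22 h at 37 °C, doses 0.05 nM–50 µM, inhibition scaled between agonist-plus-DMSO and reference-inhibitor wells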
Chain of human TLR8 (Q9NR97 27-1041): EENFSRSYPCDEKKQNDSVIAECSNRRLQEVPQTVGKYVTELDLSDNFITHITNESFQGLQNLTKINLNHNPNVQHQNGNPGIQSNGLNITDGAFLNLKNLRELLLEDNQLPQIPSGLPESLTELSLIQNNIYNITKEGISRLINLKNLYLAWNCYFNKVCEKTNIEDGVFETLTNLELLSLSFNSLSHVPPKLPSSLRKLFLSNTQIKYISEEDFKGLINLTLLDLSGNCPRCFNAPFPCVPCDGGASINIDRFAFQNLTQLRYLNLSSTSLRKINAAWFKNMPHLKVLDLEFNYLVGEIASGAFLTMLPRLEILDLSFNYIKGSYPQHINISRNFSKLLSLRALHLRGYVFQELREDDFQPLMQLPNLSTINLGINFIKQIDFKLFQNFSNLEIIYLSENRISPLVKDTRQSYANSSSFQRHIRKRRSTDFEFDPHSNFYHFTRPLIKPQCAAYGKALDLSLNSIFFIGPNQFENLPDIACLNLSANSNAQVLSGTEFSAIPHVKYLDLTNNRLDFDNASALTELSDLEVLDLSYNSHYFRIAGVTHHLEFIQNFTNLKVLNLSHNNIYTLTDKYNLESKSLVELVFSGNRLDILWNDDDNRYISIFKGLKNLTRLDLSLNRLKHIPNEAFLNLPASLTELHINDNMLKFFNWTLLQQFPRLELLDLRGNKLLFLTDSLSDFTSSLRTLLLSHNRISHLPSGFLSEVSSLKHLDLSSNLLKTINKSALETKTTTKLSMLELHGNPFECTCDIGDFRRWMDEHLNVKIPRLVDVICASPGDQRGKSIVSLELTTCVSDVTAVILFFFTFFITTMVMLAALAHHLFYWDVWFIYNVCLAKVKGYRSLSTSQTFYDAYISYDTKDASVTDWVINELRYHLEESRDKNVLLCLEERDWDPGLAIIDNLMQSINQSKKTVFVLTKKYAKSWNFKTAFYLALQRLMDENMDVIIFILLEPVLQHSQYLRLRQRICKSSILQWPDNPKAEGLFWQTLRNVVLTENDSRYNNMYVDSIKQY

[1] = read-out: TLR9 IC50, HEK-Blue cells overexpressing human TLR9, SEAP reporter, ODN2006 5 nM
[2] = HEK-Blue cells overexpressing human TLR7, SEAP reporter
[3] = HEK-Blue cells overexpressing human TLR8, SEAP reporter
[4] = read-out: TLR9 IC50, HEK-Blue cells, ODN2006 5 nM

`Cc1c(-c2[nH]c3ccc(N4C[C@H]5C[C@@H]4CN5CCC(=O)N(C)C)nc3c2C(C)C)cn2ncnc2c1C` [Example 767] gave an IC50 (human TLR9; [1]) of 8300 nM, an IC50 (human TLR7; [2]) of 5.4 nM and an IC50 (human TLR8; [3]) of 2.9 nM.

With `Cc1c(-c2[nH]c3ccc(N4C[C@@H]5C[C@H]4CN5CCC(N)=O)nc3c2C(C)C)cn2ncnc2c1C` [Example 775] the IC50 (human TLR9; [1]) was 8450 nM, the IC50 (human TLR7; [2]) was 3.8 nM and the IC50 (human TLR8; [3]) was 4.4 nM.

Work on `Cc1c(-c2[nH]c3ccc(N4CCC(N(C)Cc5ncccn5)CC4)nc3c2C(C)C)cn2cnnc2c1C` [Example 78] yielded an IC50 (human TLR9; [1]) of 3170 nM, an IC50 (human TLR7; [2]) of 3.7 nM and an IC50 (human TLR8; [3]) of 10 nM.

In the case of `CC(C)c1c(-c2cn(CC#N)c3ncccc23)[nH]c2ccc(C3CCC(NC4CCOCC4)CC3)nc12` (centres unmarked) [Example 274], the IC50 (human TLR9; [1]) is reported as 474 nM, the IC50 (human TLR7; [2]) is reported as 8.5 nM and the IC50 (human TLR8; [3]) is reported as 3.7 nM.

`Cc1c(-c2[nH]c3ccc(N4C[C@@H]5C[C@H]4CN5C(C)C)nc3c2C(C)C)cn2ncnc2c1C` [Example 783] showed an IC50 (human TLR9; [1]) of 8380 nM, an IC50 (human TLR7; [2]) of 1.8 nM and an IC50 (human TLR8; [3]) of 3.9 nM.

With `Cc1c(-c2[nH]c3ccc(N4C[C@@H]5C[C@H]4CN5C4COC4)nc3c2C(C)C)cn2ncnc2c1C` [Example 779] the IC50 (human TLR9; [1]) was 34500 nM, the IC50 (human TLR7; [2]) was 7.3 nM and the IC50 (human TLR8; [3]) was 11 nM.

In the case of `Cc1c(-c2[nH]c3ccc(N4C[C@H]5C[C@@H]4CN5CCS(C)(=O)=O)nc3c2C(C)C)cn2ncnc2c1C` [Example 764], the IC50 (human TLR9; [1]) is reported as 14400 nM, the IC50 (human TLR7; [2]) is reported as 1.9 nM and the IC50 (human TLR8; [3]) is reported as 2.8 nM.

In the case of `Cc1cc(-c2[nH]c3ccc(C4CCN(CC(N)=O)CC4)nc3c2C(C)C)cn2ncnc12` [Example 559], the IC50 (human TLR9; [1]) is reported as 4920 nM, the IC50 (human TLR7; [2]) is reported as 0.72 nM and the IC50 (human TLR8; [3]) is reported as 4.6 nM.

Work on `Cc1c(-c2[nH]c3ccc(N4C[C@@H]5C[C@H]4CN5C4CCOCC4)nc3c2C(C)C)cn2ncnc2c1C` [Example 780] yielded an IC50 (human TLR9; [1]) of 5220 nM, an IC50 (human TLR7; [2]) of 1.9 nM and an IC50 (human TLR8; [3]) of 5.4 nM.

Molecule `Cc1c(-c2[nH]c3ccc(N4C[C@@H]5C[C@H]4CN5C(=O)CCN(C)C)nc3c2C(C)C)cn2ncnc2c1C` [Example 785] has an IC50 (human TLR9; [1]) of 4680 nM, an IC50 (human TLR7; [2]) of 8 nM and an IC50 (human TLR8; [3]) of 13 nM.

For `Cc1c(-c2[nH]c3ccc(C4CC5(C4)CN(C)C5)nc3c2C(C)C)cn2ncnc2c1C` [Example 1022], the IC50 (human TLR9; [4]) was 3650 nM, the IC50 (human TLR7; HEK-Blue cells) was 0.91 nM and the IC50 (human TLR8; HEK-Blue cells) was 1.9 nM.

`Cc1c(-c2[nH]c3ccc(C4CC5(C4)CN(C(C)C)C5)nc3c2C(C)C)cn2ncnc2c1C` [Example 1023] showed an IC50 (human TLR9; [4]) of 6940 nM, an IC50 (human TLR7; HEK-Blue cells) of 10 nM and an IC50 (human TLR8; HEK-Blue cells) of 3.6 nM.

Molecule `Cc1c(-c2[nH]c3ccc(N4C[C@@H]5C[C@H]4CN5C4CCS(=O)(=O)CC4)nc3c2C(C)C)cn2ncnc2c1C` [Example 781] has an IC50 (human TLR9; [1]) of 14400 nM, an IC50 (human TLR7; [2]) of 11 nM and an IC50 (human TLR8; [3]) of 18 nM.

`Cc1c(-c2[nH]c3ccc(N4C[C@H]5C[C@@H]4CN5CCC(N)=O)nc3c2C(C)C)cn2ncnc2c1C` [Example 763] gave an IC50 (human TLR9; [1]) of 4580 nM, an IC50 (human TLR7; [2]) of 3.8 nM and an IC50 (human TLR8; [3]) of 2.6 nM.

Molecule `Cc1c(-c2[nH]c3ccc(N4C[C@@H]5C[C@H]4CN5CCS(C)(=O)=O)nc3c2C(C)C)cn2ncnc2c1C` [Example 777] has an IC50 (human TLR9; [1]) of 14800 nM, an IC50 (human TLR7; [2]) of 9.2 nM and an IC50 (human TLR8; [3]) of 7.4 nM.

`Cc1c(-c2[nH]c3ccc(N4C[C@H]5C[C@@H]4CN5C(=O)CCN(C)C)nc3c2C(C)C)cn2ncnc2c1C` [Example 773] gave an IC50 (human TLR9; [1]) of 2710 nM, an IC50 (human TLR7; [2]) of 3 nM and an IC50 (human TLR8; [3]) of 4.6 nM.

In the case of `Cc1c(-c2[nH]c3ccc(N4C[C@H]5C[C@@H]4CN5CCCS(C)(=O)=O)nc3c2C(C)C)cn2ncnc2c1C` [Example 765], the IC50 (human TLR9; [1]) is reported as 10300 nM, the IC50 (human TLR7; [2]) is reported as 5.6 nM and the IC50 (human TLR8; [3]) is reported as 3.5 nM.

For `Cc1c(-c2[nH]c3ccc(N4C[C@H]5C[C@@H]4CN5C(C)C)nc3c2C(C)C)cn2ncnc2c1C` [Example 786], the IC50 (human TLR9; [1]) was 14700 nM, the IC50 (human TLR7; [2]) was 7.7 nM and the IC50 (human TLR8; [3]) was 12 nM.

For `Cc1c(-c2[nH]c3ccc(N4C[C@@H]5C[C@H]4CN5CC(N)=O)nc3c2C(C)C)cn2ncnc2c1C` [Example 774], the IC50 (human TLR9; [1]) was 18600 nM, the IC50 (human TLR7; [2]) was 3.7 nM and the IC50 (human TLR8; [3]) was 5.7 nM.

With `Cc1c(-c2[nH]c3ccc(N4C[C@@H](C)N(CCCS(C)(=O)=O)C[C@@H]4C)nc3c2C(C)C)cn2ncnc2c1C` [Example 846] the IC50 (human TLR9; [4]) was 22600 nM, the IC50 (human TLR7; HEK-Blue cells) was 0.55 nM and the IC50 (human TLR8; HEK-Blue cells) was 1.2 nM.

`Cc1c(-c2[nH]c3ccc(N4C[C@@H]5C[C@H]4CN5CCC(=O)N(C)C)nc3c2C(C)C)cn2ncnc2c1C` [Example 776] was tested, and the IC50 (human TLR9; [1]) was 13100 nM, the IC50 (human TLR7; [2]) was 6 nM and the IC50 (human TLR8; [3]) was 5.3 nM.

In the case of `CC(C)c1c(-c2cn(CCS(C)(=O)=O)c3ncccc23)[nH]c2ccc(C3CCC(NC4CCOCC4)CC3)nc12` (centres unmarked) [Example 271], the IC50 (human TLR9; [1]) is reported as 228 nM, the IC50 (human TLR7; [2]) is reported as 120 nM and the IC50 (human TLR8; [3]) is reported as 40 nM.

`Cc1c(-c2[nH]c3ccc(N4C[C@@H]5C[C@H]4CN5C(=O)CN(C)C)nc3c2C(C)C)cn2ncnc2c1C` [Example 784] gave an IC50 (human TLR9; [1]) of 4530 nM, an IC50 (human TLR7; [2]) of 2.9 nM and an IC50 (human TLR8; [3]) of 9.4 nM.

`Cc1c(-c2[nH]c3ccc(N4C[C@H]5C[C@@H]4CN5CC#N)nc3c2C(C)C)cn2ncnc2c1C` [Example 766] showed an IC50 (human TLR9; [1]) of 3510 nM, an IC50 (human TLR7; [2]) of 0.86 nM and an IC50 (human TLR8; [3]) of 1.2 nM.

`Cc1c(-c2[nH]c3ccc(N4C[C@H]5CCC[C@@H](C4)N5CCS(C)(=O)=O)nc3c2C(C)C)cn2ncnc2c1C` [Example 751] was tested, and the IC50 (human TLR9; [1]) was 26000 nM, the IC50 (human TLR7; [2]) was 13 nM and the IC50 (human TLR8; [3]) was 7.3 nM.

For `CCN(CCS(C)(=O)=O)C1CCC(c2ccc3[nH]c(-c4cn5ncnc5c(C)c4C)c(C(C)C)c3n2)CC1` (centres unmarked) [Example 460], the IC50 (human TLR9; [1]) was 2060 nM, the IC50 (human TLR7; [2]) was 0.88 nM and the IC50 (human TLR8; [3]) was 0.79 nM.

In the case of `Cc1c(-c2[nH]c3ccc(N4C[C@@H]5C[C@H]4CN5Cc4cn(C)nn4)nc3c2C(C)C)cn2ncnc2c1C` [Example 787], the IC50 (human TLR9; [1]) is reported as 12300 nM, the IC50 (human TLR7; [2]) is reported as 9.4 nM and the IC50 (human TLR8; [3]) is reported as 4.9 nM.

`Cc1c(-c2[nH]c3ccc(N4C[C@H]5C[C@@H]4CN5C4COC4)nc3c2C(C)C)cn2ncnc2c1C` [Example 768] was tested, and the IC50 (human TLR9; [1]) was 21000 nM, the IC50 (human TLR7; [2]) was 6.4 nM and the IC50 (human TLR8; [3]) was 9.6 nM.

Molecule `COc1cc(-c2[nH]c3ccc(CCC4CN(Cc5c[nH]nn5)C4)nc3c2C(C)C)cn2ncnc12` [Example 688] has an IC50 (human TLR9; [1]) of 177 nM, an IC50 (human TLR7; [2]) of 8.4 nM and an IC50 (human TLR8; [3]) of 23 nM.

`Cc1c(-c2[nH]c3ccc(N4C[C@H]5C[C@@H]4CN5CC(N)=O)nc3c2C(C)C)cn2ncnc2c1C` [Example 762] showed an IC50 (human TLR9; [1]) of 18300 nM, an IC50 (human TLR7; [2]) of 3.8 nM and an IC50 (human TLR8; [3]) of 8.6 nM.

With `Cc1c(-c2[nH]c3ccc(N4C[C@@H]5C[C@H]4CN5CCCS(C)(=O)=O)nc3c2C(C)C)cn2ncnc2c1C` [Example 778] the IC50 (human TLR9; [1]) was 7910 nM, the IC50 (human TLR7; [2]) was 2.7 nM and the IC50 (human TLR8; [3]) was 2.3 nM.

With `Cc1c(-c2[nH]c3ccc(N4[C@@H]5CC[C@H]4CN(CCC(N)=O)C5)nc3c2C(C)C)cn2ncnc2c1C` [Example 749] the IC50 (human TLR9; [1]) was 14900 nM, the IC50 (human TLR7; [2]) was 2.9 nM and the IC50 (human TLR8; [3]) was 2.6 nM.

Work on `Cc1c(-c2[nH]c3ccc(N4C[C@H]5C[C@@H]4CN5C4CCS(=O)(=O)CC4)nc3c2C(C)C)cn2ncnc2c1C` [Example 770] yielded an IC50 (human TLR9; [1]) of 18200 nM, an IC50 (human TLR7; [2]) of 11 nM and an IC50 (human TLR8; [3]) of 24 nM.

In the case of `CCCN(CCC)C1CCC(Oc2ccc3[nH]c(-c4cc(OC)c5ncnn5c4)c(C(C)C)c3n2)CC1` (centres unmarked) [Example 605, 4-((3-isopropyl-2-(8-methoxy-[1,2,4]triazolo[1,5-a]pyridin-6-yl)-1H-pyrrolo[3,2-b]pyridin-5-yl)oxy)-N,N-dipropylcyclohexan-1-amine], the IC50 (human TLR9) is reported as 4240 nM and the IC50 (human TLR7; [2]) is reported as 13 nM.

Work on `Cc1c(-c2[nH]c3ccc(N4CCN(C(=O)CN(C)C)[C@H](C)C4)nc3c2C(C)C)cn2ncnc2c1C` [Example 849] yielded an IC50 (human TLR9; [4]) of 8120 nM, an IC50 (human TLR7; HEK-Blue cells) of 0.53 nM and an IC50 (human TLR8; HEK-Blue cells) of 1.6 nM.

For `Cc1c(-c2[nH]c3ccc(N4C[C@H]5CCC[C@@H](C4)N5C(=O)CN(C)C)nc3c2C(C)C)cn2ncnc2c1C` [Example 750], the IC50 (human TLR9; [1]) was 6140 nM, the IC50 (human TLR7; [2]) was 1.2 nM and the IC50 (human TLR8; [3]) was 3.7 nM.
